From US20050209207A1, “Aerosol formulations containing esters of 3,17-dihydroxy oestratriene derivatives for pulmonary delivery” (priority 2002, published 2005)
Where two headings read alike, the source gives them in different places.

Experiments:
[1] = porous particles, Andersen cascade Impaction; cited from earlier work
[2] = transdermal patches; cited from earlier work
[3] = intranasal aqueous solution with dimethyl-β-cyclodextrin, compared to the IV route; cited from earlier work
[4] = cited from earlier work
[5] = 0.1% w/v drug, HFA134a
[6] = Andersen Cascade Impactor (ACI) deposition studies of HFA solution pMDIs; assay type: physicochemical
Description: All impaction studies were conducted with formulations contained in cut edge anodised aluminium cans fitted with 50 μl or 100 μl valves. The studies were carried out using an Andersen Cascade Impactor (ACI) fitted with a USP XXII metal throat entry port. The ACI was operated at a flow rate of 28.3±2 l min^−1. All solution HFA formulations were discharged into the ACI through an actuator having an orifice diameter of 0.22 mm. Deposition of the drug on each ACI plate was determined by high pressure liquid chromatography (HPLC). MMAD values and corresponding geometric standard deviations (GSD) were calculated from plots of the cumulative percentage undersize of drug collected on each ACI plate (probit scale), against the upper cut off diameter for each respective ACI plate (log 10 scale).

[7] = 0.1% w/v (50 μg/dose), 5% w/w ethanol, 0.1% w/w glycerol, HFA134a, ten shots

17β-Oestradiol
fine particle fraction [1]: approximately 33% | mean serum oestradiol levels [2]: 70 to 90 pg/mL | bioavailability [3]: approximately 65% | peak plasma concentration ([4]; sublingual, 0.25 mg): 294 pg/mL | peak plasma concentration ([4]; sublingual, 0.5 mg): 245 pg/mL | peak plasma concentration ([4]; sublingual, 1.0 mg): 451 pg/mL | time to peak plasma concentration ([4]; sublingual, 0.25, 0.5 and 1.0 mg): ≤ 1 h | 17β-oestradiol levels ([4]; sublingual, after 6 hours): less than 60 pg/ml

C[C@]12CC[C@@H]3c4ccc(OC(=O)c5ccccc5)cc4CC[C@H]3[C@@H]1CC[C@@H]2O [Formulation 3-Benzoate]
Solubility ([5]; 13% w/w ethanol, no glycerol): Insoluble

C[C@]12CC[C@@H]3c4ccc(O)cc4CC[C@H]3[C@@H]1CC[C@@H]2OC(=O)CCC1CCCC1 [Formulation 17-Cypionate]
Solubility ([5]; 5% w/w ethanol, 0.1% w/w glycerol): Insoluble

CCCCCCC(=O)O[C@H]1CC[C@H]2[C@@H]3CCc4cc(O)ccc4[C@H]3CC[C@]12C [Formulation 17-Enanthate, β-oestradiol enanthate]
GSD [6, 7]: 1.7 | MMAD [6, 7]: 1.5 μm | fine particle dose (FPD) [6, 7]: 38.8 µg | fine particle fraction (FPF) [6, 7]: 78.5%

β-oestradiol-3,17-dipropionate [β-oestradiol 3,17-dipropionate]
MMAD ([6]; 200 μg/dose (0.4% w/v), 0% w/w ethanol, HFA 134a): 0.90 μm | MMAD ([6]; 200 μg/dose (0.4% w/v), 2% w/w ethanol, HFA 134a): 1.50 μm | MMAD ([6]; 200 μg/dose (0.4% w/v), 5% w/w ethanol, HFA 134a): 1.50 μm | MMAD ([6]; 500 μg/dose (1% w/v), 5% w/w ethanol, HFA 134a): 1.90 μm
